# Marks after values point to notes of the source that are not given here.
# How the values were obtained:
# Format in all cases: cell-based, human
# HepaRG cells [1] = assay: Urea production of HepaRG monolayer cultures
# Protocol: For testing, the cells are seeded in 6-well and 24-well culture plates (Corning) in HepaRG media with different FBS batches or other differences in medium composition. After a 2 weeks proliferation phase, 2% of DMSO will be added to half of the cultures. After another 2 weeks of culturing, the confluence and morphology of the cultures will be assessed microscopically. Furthermore the +DMSO and −DMSO cell cultures in the 24-well plates will be tested for biochemical activity, i.e. urea production, ammonia elimination and protein content. […] Medium samples are taken after 1 hr from the culture wells, as a reference, and after 24 hours. At the end of the test period the cells are washed three times using PBS and stored at −20° C. for protein determination. From the changes in concentration at t=1 hr and 24 hr of urea and ammonia an activity per hour and per mg protein/well is calculated.
# (§1) Urea: Urea concentrations of test medium samples are determined using the blood urea nitrogen test of Sigma Chemical Co according to the instructions of the manufacturer.
# (§2) The HepaRG cells are cultured as indicated above in 24 well in presence or absence of 1 mM CG during the last 5 days. Next the cells are tested as indicated above in presence or absence of CG during 24 hours. To determine the conversion of ammonia into urea, the ^15N urea enrichment (single and double labeled) is measured in the test samples using mass-spectrometry. Similarly, HepG2 and cBAL111 cells were tested for their response to CG.
# HepG2 cells = assay: Urea production of HepG2 cells in monolayer, response to CG
# Protocol: as §1, §2
# HepaRG cells [2] = assay: AMC-BAL bioreactor functionality test of HepaRG cells
# Protocol: One liter of HepaRG medium containing 75 ml of viable HepaRG cells is injected under sterile conditions into an AMC-BAL bioreactor (cf. Flendrig et al.^15) through three loading ports. […] To ensure optimal cell attachment and an even cell distribution, bioreactors are rotated 340° (back and forth) along the longitudinal axis at 1 revolution/min. After this attachment period, dead and unattached cells are removed by flushing 500 mL of fresh culture medium through the bioreactor at 150 mL/min. From then on bioreactors are perfused with 1.5 L recirculating culture medium at 150 mL/min. The medium is refreshed every three days. The bioreactors are cultured in HepaRG medium for 14 days. […] At least one week prior to clinical application, 1 mM CG (Sigma) is added to the media to enhance the urea cycle. The bioreactors are tested every culture week and prior to clinical application for sterility and function. Laboratory model AMC-BAL bioreactors, e.g. of a different scale, are produced in essentially the same way as described above. These laboratory model bioreactors are used e.g. for clinical testing in animal models, such as rats with acute liver failure.
# Thirdly, the culture medium is replaced by 1500 ml test medium. […] At first 700 ml test medium is flushed through the bioreactor followed by recirculation of 800 ml test medium during 24 hours. […] From the changes in concentration an activity per hour and per billion cells seeded is calculated.
# HepaRG cells [3] = assay: 15N urea enrichment (conversion of ammonia into urea) in HepaRG monolayer cultures; conditions: for 15N urea enrichment: 1 mM CG in preincubation and in testmedium (++)
# Protocol: For testing, the cells are seeded in 6-well and 24-well culture plates (Corning) in HepaRG media with different FBS batches or other differences in medium composition. After a 2 weeks proliferation phase, 2% of DMSO will be added to half of the cultures. After another 2 weeks of culturing, the confluence and morphology of the cultures will be assessed microscopically. Furthermore the +DMSO and −DMSO cell cultures in the 24-well plates will be tested for biochemical activity, i.e. urea production, ammonia elimination and protein content. The cultured cells are washed twice using phosphate buffered saline (PBS, NBPI International) and then incubated with test medium consisting of HepaRG culture medium supplemented with 1.5 mM ^15NH4Cl (Sigma), 2.75 mM D-galactose (Sigma), 2 mM ornithine hydrochloride (Sigma) and 2 mM L-lactate (Sigma). Medium samples are taken after 1 hr from the culture wells, as a reference, and after 24 hours. At the end of the test period the cells are washed three times using PBS and stored at −20° C. for protein determination. From the changes in concentration at t=1 hr and 24 hr of urea and ammonia an activity per hour and per mg protein/well is calculated. Quality of the cell-loaded bioreactors, measured by hepatocyte function at the start of the treatment, will be compared with values of primary hepatocytes that have been tested extensively in vitro in the past.
# ^15N Urea: Single and Double labelled urea is measured in the test medium samples using mass-spectrometry.
# as §2
# cBAL111 cells = assay: Urea production of cBAL111 cells in monolayer, response to CG
# Protocol: as §1, §2
# [4] = 1 mM CG in preincubation and in testmedium (++)
# [5] = 1 mM CG only during preincubation (+−)
# [6] = Bioreactor −DMSO +CG versus Monolayer + DMSO − CG
# [7] = Bioreactor −DMSO +CG versus Monolayer − DMSO − CG
# [8] = HepaRG in AMC-BAL bioreactor, 13 days, −DMSO, 1 mM CG
smiles,measurement,setting,value
"NC(=O)N[C@@H](CCC(=O)O)C(=O)O [CG, carbamoyl glutamate]",instantaneous effect of CG on urea production,HepaRG cells [1],negligible
same,Urea production,"HepaRG cells [1]; HepaRG + DMSO, 1 mM CG in preincubation and in testmedium (++)",13.7 ± 4.4 nmol/h/mg protein
same,Urea production,"HepaRG cells [1]; HepaRG + DMSO, 1 mM CG only during preincubation (+−)",11.0 ± 5.3 nmol/h/mg protein
same,Urea production,"HepaRG cells [1]; HepaRG + DMSO, 1 mM CG only during test (−+)",4.9 ± 4.2 nmol/h/mg protein
same,Urea production,"HepaRG cells [1]; HepaRG − DMSO, 1 mM CG in preincubation and in testmedium (++)",9.5 ± 4.2 nmol/h/mg protein
same,Urea production,"HepaRG cells [1]; HepaRG − DMSO, 1 mM CG only during preincubation (+−)",9.6 ± 3.3 nmol/h/mg protein
same,Urea production,"HepaRG cells [1]; HepaRG − DMSO, 1 mM CG only during test (−+)",5.9 ± 2.4 nmol/h/mg protein
same,increase of urea production by CG treatment,"HepaRG cells [1]; all cell lines (HepG2, cBAL111, HepaRG), 1 mM CG",more than two-fold
same,time increased urea production is maintained upon withdrawal of the CG,HepaRG cells [1]; cells exposed to carbamoyl glutamate for at least 5 days,at least 24 hrs
same,Urea production,HepG2 cells; [4],2.4 ± 1.6 nmol/h/mg protein
same,Urea production,HepG2 cells; [5],2.5 ± 1.4 nmol/h/mg protein
same,Urea production,HepG2 cells; 1 mM CG only during test (−+),1.8 ± 1.1 nmol/h/mg protein
same,% improvement by bioreactor: 15N urea enrichment,HepaRG cells [2]; [6],157* %
same,% improvement by bioreactor: Ammonia elimination,HepaRG cells [2]; [6],134%
same,% improvement by bioreactor: ApoA1 synthesis,HepaRG cells [2]; [6],113%
same,% improvement by bioreactor: Lactate consumption,HepaRG cells [2]; [6],conversion*
same,% improvement by bioreactor: Urea production,HepaRG cells [2]; [6],187* %
same,% improvement by bioreactor: 15N urea enrichment,HepaRG cells [2]; [7],418* %
same,% improvement by bioreactor: Ammonia elimination,HepaRG cells [2]; [7],199* %
same,% improvement by bioreactor: ApoA1 synthesis,HepaRG cells [2]; [7],154%
same,% improvement by bioreactor: Lactate consumption,HepaRG cells [2]; [7],conversion*
same,% improvement by bioreactor: Urea production,HepaRG cells [2]; [7],262* %
same,15N urea enrichment,HepaRG cells [2]; [8],25.1 ± 3.7 % of total urea
same,Ammonia elimination,HepaRG cells [2]; [8],143 ± 105 nmol/h/mg protein
same,ApoA1 synthesis,HepaRG cells [2]; [8],1.2 ± 0.9 ug/h/mg protein
same,Lactate consumption,HepaRG cells [2]; [8],42.1 ± 14.7 nmol/h/mg protein
same,Urea production,HepaRG cells [2]; [8],13.1 ± 1.2 nmol/h/mg protein
same,15N urea enrichment,HepaRG cells [3]; HepaRG + DMSO,7.8 ± 2.4 % of total urea produced
same,15N urea enrichment,HepaRG cells [3]; HepaRG − DMSO,24.4 ± 4.1 % of total urea produced
same,increase of % of urea of the total urea produced from ammonia,"HepaRG cells [3]; HepaRG −DMSO cells, CG treatment",four-fold
same,Urea production,cBAL111 cells; [4],9.4 ± 8.4 nmol/h/mg protein
same,Urea production,cBAL111 cells; [5],10.8 ± 6.2 nmol/h/mg protein
same,Urea production,cBAL111 cells; 1 mM CG only during test (−+),8.3 ± 8.3 nmol/h/mg protein
